# From patent US7662851B2, “Use of specific cyklolignans” (Axelar AB, priority 2001, dated 2010)
# Like-named read-outs stand apart in the source and are kept apart here.
# Key:
# [1] = system: K562/S chronic myeloid leukemia cells; assay: Leukemia cell viability, K562/S; type: cell-based, human; details: 72 h
# Method: (§1) The human chronic myeloid leukemia K562/S and K562/Vcr30 lines and the acute myeloid leukemia cell lines HL60/0 and HL60/Nov were obtained from ATCC. The K562/S and […] are wild type (non-resistant) cells, whereas K562/Vcr30 and HL60/Nov are cytostatic-resistant sublines. All leukemia cell lines were cultured in RPMI 1640 medium supplemented with 10% fetal bovine serum and with 2 mM L-glutamine, benzylpenicillin (100 U/ml) and streptomycin (100 μg/ml). The cells were grown in tissue culture flasks maintained at 95% air/5% CO2 atmosphere at 37° C. in a humidified incubator. For the experiments cells were cultured in 60-mm plastic dishes or 96-well plastic plates.
# (§2) Cell proliferation kit II (Roche Inc.) is based on colorimetric change of the yellow tetrazolium salt XTT in orange formazan dye by the respiratory chain of viable cells (Roehm, N W, et al., J Immunol Methods 142:257-265, 1991). Cells seeded at a concentration of 5000/well in 100 μl medium in a 96-well plate were treated with different drugs in the given concentration. After 24 or 48 h the cells were incubated, according to the manufacturer's protocol, with XTT labelling mixture. After 4 h the formazan dye is quantified using a scanning multiwell spectrophotometer with a 495-nm filter. The absorbance is directly correlated with the number of viable cells. The standard absorbance curve was drawn by means of untreated cells seeded at a concentration of from 1000 to 10 000 cells/well with an increasing rate of 1000 cells/well. All standards and experiments were performed in triplicates.
# (§3) Cells of said cell lines were seeded in 96-well plates (25 000 cells/well, medium volume per well was 100 μl), in […] medium supplemented with fetal calf serum. After 24 h picropodophyllin and the derivatives alpha-apopicropodophyllin and beta-apopicropodo-phyllin were added at different concentrations and the cells were incubated for 72 h. Cell viability was then assayed (see above). […] The results are based on 3 different experiments.
# (§4) The leukemia cell lines K562/S, […], HL60/0 and HL60/Nov were cultured in 96-well plates as described in Experiment 7. After 24 h, the cells were treated for 72 h with different concentrations of the anti-cancer agent vincristine, with and without co-incubation with 0.05 μM picropodophyllin. […] Cell viability was then assayed. IC50 values for each inhibitor and cell line are shown below (Table 8). The results are based on 3 different experiments.
# [2] = system: K562/Vcr30 chronic myeloid leukemia cells; assay: Leukemia cell viability, K562/Vcr30; type: cell-based, human; details: K562/Vcr30, 72 h
# Method: as §1, §2, §3, §4
# [3] = system: HL60/0 acute myeloid leukemia cells; assay: Leukemia cell viability, HL60/0; type: cell-based, human
# Method: as §1, §2, §3, §4
# [4] = system: HL60/Nov acute myeloid leukemia cells; assay: Leukemia cell viability, HL60/Nov; type: cell-based, human
# Method: as §1, §2, §3, §4
# [5] = biological target: IGF-1R (Homo sapiens, UniProt P08069); assay: Tyrosine phosphorylation of IGF-1R in intact FM55 melanoma cells; type: cell-based; set-up: endogenous in cells; details: for Level of IGF-1R phosphorylation in intact cells: FM55 melanoma cells, 1 h, means of 3 experiments
# IGF-1R, sequence (P08069 31-1367): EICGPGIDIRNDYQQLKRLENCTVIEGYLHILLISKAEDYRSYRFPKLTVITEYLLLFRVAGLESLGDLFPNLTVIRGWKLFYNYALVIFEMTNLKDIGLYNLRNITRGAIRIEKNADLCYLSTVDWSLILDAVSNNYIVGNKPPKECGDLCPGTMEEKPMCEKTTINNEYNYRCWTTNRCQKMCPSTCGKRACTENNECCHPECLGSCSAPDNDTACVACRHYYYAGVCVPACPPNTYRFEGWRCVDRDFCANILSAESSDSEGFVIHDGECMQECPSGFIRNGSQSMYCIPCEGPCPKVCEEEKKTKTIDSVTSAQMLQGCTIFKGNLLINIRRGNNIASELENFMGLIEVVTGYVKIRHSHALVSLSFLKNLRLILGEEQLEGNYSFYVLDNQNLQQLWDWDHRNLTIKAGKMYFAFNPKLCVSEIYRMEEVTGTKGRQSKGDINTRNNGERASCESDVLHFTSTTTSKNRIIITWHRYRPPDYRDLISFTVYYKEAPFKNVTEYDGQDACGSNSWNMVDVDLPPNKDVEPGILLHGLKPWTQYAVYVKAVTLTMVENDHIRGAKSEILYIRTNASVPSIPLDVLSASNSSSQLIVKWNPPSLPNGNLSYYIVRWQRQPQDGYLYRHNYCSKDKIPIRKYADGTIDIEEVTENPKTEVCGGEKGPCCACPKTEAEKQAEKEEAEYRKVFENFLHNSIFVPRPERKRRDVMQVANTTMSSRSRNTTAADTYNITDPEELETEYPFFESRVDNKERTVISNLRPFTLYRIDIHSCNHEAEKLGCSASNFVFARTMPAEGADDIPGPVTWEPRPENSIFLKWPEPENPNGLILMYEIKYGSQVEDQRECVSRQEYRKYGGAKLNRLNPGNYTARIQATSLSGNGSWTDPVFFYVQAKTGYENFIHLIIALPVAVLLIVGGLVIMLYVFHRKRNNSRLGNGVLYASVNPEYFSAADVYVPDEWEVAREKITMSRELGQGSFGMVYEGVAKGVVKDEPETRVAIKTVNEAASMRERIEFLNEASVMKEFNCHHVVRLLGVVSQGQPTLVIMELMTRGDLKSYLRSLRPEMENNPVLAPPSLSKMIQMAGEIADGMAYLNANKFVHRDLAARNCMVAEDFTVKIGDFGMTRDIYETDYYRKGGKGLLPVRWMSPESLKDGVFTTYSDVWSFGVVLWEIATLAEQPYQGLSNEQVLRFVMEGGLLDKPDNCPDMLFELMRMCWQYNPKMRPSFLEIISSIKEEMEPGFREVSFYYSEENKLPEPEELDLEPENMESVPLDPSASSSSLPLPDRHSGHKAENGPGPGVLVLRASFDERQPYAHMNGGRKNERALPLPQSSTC
# Method: Cells were cultured to subconfluency in 6-cm plates, and then fresh medium containing 10% FBS and the desired compounds were added for 1 h. The cells were then lyzed and subjected to immunoprecipitation using specific antibodies. Immunoprecipitates were resolved by sodium dodecyl sulphate polyacrylamide gel electrophoresis (SDS-PAGE) and transferred to nitro-cellulose membranes and incubated with anti-phosphotyrosine antibody. Antibodies to actin (in cell extract) or IGF-1R beta subunit were used as loading controls. After detection the films were scanned for quantification.
# The isolated cells were then lyzed in 10 ml ice-cold PBSTDS containing protease inhibitors (Carlberg, M., et al., J Biol Chem 271:17453-17462, 1996). 50 μl protein A or G agarose was added in 1 ml sample and incubated for 15 min at 4° C. on an orbital shaker. After centrifugation for 10 min at 10,000 r/min at 4° C. the supernatant was saved. The protein content was determined by a dye-binding assay with a reagent purchased from Bio-Rad. Bovine serum albumin was used as a standard. 15 μl Protein G Plus agarose and 5 μl anti-IGF-1R were added. After a 3 h incubation at 4° C. on an orbital shaker the precipitate was collected by pulse centrifugation in a micro centrifuge at 14,000×g for 10 s. The supernatant was discarded and the pellet was washed 3 times with PBSTDS.
# Protein samples were solved in a 2×-sample buffer containing Laemmli buffer and 0.5% […] and boiled for 5 min at 96° C. Samples were separated by SDS-PAGE with a 4% stacking gel and 7.5% separation gel. Molecular weight markers (Bio Rad, Sweden) were run simultaneously in all experiments.
# Following SDS-PAGE the proteins were transferred overnight to nitro-cellulose membranes (Hybond, Amersham, UK) and then blocked for 1 h at room temperature in a solution of 4% skimmed milk powder and 0.02% Tween 20 in PBS, pH 7.5. Incubations with the primary antibodies were performed for 1 h at room temperature, followed by 3 washes with PBS with Tween and incubation with the second antibody for 1 h room temperature. After another 3 washes the membranes were incubated with Streptavidin-labelled horseradish peroxidase for 30 min and then detected using Amersham ECL system (Amersham, UK). The films were scanned by Fluor-S (BioRad).
# FM55 melanoma cells were seeded in 6-cm dishes, at a concentration of 10,000 cells/cm^2 in Minimal Essential Medium supplemented with 10% fetal calf serum (FCS). When the cells reached a density of 65,000 cells/cm^2 in the dishes, they were treated for 1 h with 0.05 μM podophyllotoxin, deoxypodophyllotoxin, picropodophyllin, deoxypicropodophyllin, 4′-demethyl-7-(4,6-O-ethylidene-β-D-glucopyranosyl)epipodophyllotoxin (etoposide) and podophyllotoxin-4,6-O-benzylidene-β-D-glucopyranoside (pf-4,6-O). Etoposide and pf-4,6-O were also administered at 15 μM. The cells were then harvested for assay and quantification of IGF-1R phosphorylation as described in Experiment 1. The values shown in Table 1 represent means of 3 experiments.
# FM55 melanoma cells were cultured in the same way as described in Experiment 1. When reaching a density of 65,000 cells/cm^2 in the dishes, they were treated for 1 h with 0 (control) and 0.05 μM of picropodophyllin and podophyllotoxin, respectively. The cells were then isolated and subjected to immunoprecipitation of the IGF-1R, fibroblast growth factor receptor (FGFR), platelet-derived growth factor receptor (PDGFR), epidermal growth factor receptor (EGFR), insulin receptor (IR) and insulin substrate-1 (IRS-1) using antibodies to respective molecules. IRS-1 is a substrate of IGF-1R, and therefore its phosphorylation is dependent on phosphorylated IGF-1R. Gelelectrophoresis, Western blotting and quantification of the different signals were performed as described above.
# [6] = Local toxicity, subcutaneous osmotic pumps in nude mice; type: in vivo; details: subcutaneous osmotic pump loaded with 0.25 mg, 7 days
# Method: Control mice were treated with the solvent. 3-6 animals were treated in each group.
# The first set of experiments was carried out to investigate possible local and systemic toxic effects of podophyllotoxin, deoxypodophyllotoxin and picropodophyllin on nude mice. In the first experiment osmotic pumps loaded with either drug-free solvent, podophyllotoxin (0.25 mg), deoxypodophyllotoxin (0.25 mg) or picropodophyllin (0.25 mg) were implanted subcutaneously in the flank region. The drugs are delivered subcutaneously with a constant flow of 0.6 μl/h over 7 days. The volume of the pumps was 100 μl. After 7 days the mice were killed and the skin and subcutaneous tissue adjacent to the outlet of the pumps were analyzed and scored for tissue reactions by an experienced pathologist. There were 3 mice in each group.
# [7] = Systemic toxicity, daily intraperitoneal injection in nude mice; details: for Signs of disease: up to 5 days
# Method: Four to five-week old pathogen-free nude mice (nu/nu) were used and housed within plastic isolators in a sterile facility. […] Experimental treatments with podophyllotoxin, deoxypodophyllotoxin or picropodophyllin were performed by daily intraperitoneal injections of the compound in 100 μl volume of solvent, composed of a mixture of DMSO and physiological saline (8:2). Control mice were treated with the solvent. 3-6 animals were treated in each group. Animals were monitored three times a week for signs of disease and tumor growth. Tumor mass was estimated using the formula (d^2×D)/2, where d and D represent the small and large diameters of the tumor, respectively. The mice were carefully observed for presence of side effects and were sacrificed at the end of the experiments for histological analysis of the lesions. All experiments were performed according to the ethical guidelines for laboratory animal use, provided by institutional ethical committee.
# In the next experiment we analyzed systemic effects of the drugs by injecting 100 μl intraperitoneally of each compound daily over 5 days. Two doses were injected (7 or 28 mg/kg/d) and 3-6 mice were used for each drug and dose. The mice were checked carefully daily for signs of discomfort, diseases and weight loss.
# [8] = read-out: IC50 for cell viability
# [9] = HL60, 72 h, read-out: IC50 for cell viability
# [10] = 72 h, read-out: IC50 for cell viability
# [11] = Homo sapiens, read-out: IC50 for cell viability, vincristine alone
compound,measurement,setting,value
"COc1cc([C@@H]2c3cc4c(cc3C=C3COC(=O)[C@H]32)OCO4)cc(OC)c1OC [Alpha-apopicro, α-apopicropodophyllin]",IC50,[1]; [8],40 nM
same,IC50,[2]; [8],50 nM
same,IC50,[3]; [9],20 nM
same,IC50,[4]; [10],20 nM
"COc1cc([C@@H]2c3cc4c(cc3C[C@H]3COC(=O)[C@H]32)OCO4)cc(OC)c1OC [Deoxypicropodophyllin, deoxypicropodophyllin]",Level of IGF-1R phosphorylation in intact cells,[5]; 0.05 μM,5 % OD
"COc1cc([C@@H]2c3cc4c(cc3C[C@H]3COC(=O)[C@@H]32)OCO4)cc(OC)c1OC [Deoxypodophyllotoxin, deoxypodophyllotoxin]",Level of IGF-1R phosphorylation in intact cells,[5]; 0.05 μM,2 % OD
same,Local tissue reactions,[6],light damages
same,Surviving mice/Investigated mice,"[7]; 7 mg/kg/d i.p., 1 d",3/3
same,Surviving mice/Investigated mice,"[7]; 7 mg/kg/d i.p., 2 d",3/3
same,Surviving mice/Investigated mice,"[7]; 7 mg/kg/d i.p., 3 d",3/3
same,Surviving mice/Investigated mice,"[7]; 7 mg/kg/d i.p., 4 d",3/3
same,Surviving mice/Investigated mice,"[7]; 7 mg/kg/d i.p., 5 d",3/3
same,Surviving mice/Investigated mice,"[7]; 28 mg/kg/d i.p., 1 d",6/6
same,Surviving mice/Investigated mice,"[7]; 28 mg/kg/d i.p., 2 d",4/6
same,Surviving mice/Investigated mice,"[7]; 28 mg/kg/d i.p., 3 d",0/6
same,Signs of disease,[7]; high dose (28 mg/kg/d) i.p. daily,serious disease or death
same,Signs of disease,[7]; low dose (7 mg/kg/d) i.p. daily,serious signs of disease
"COc1cc([C@@H]2c3cc4c(cc3[C@@H](O[C@@H]3O[C@@H]5CO[C@@H](C)O[C@H]5[C@H](O)[C@H]3O)[C@H]3COC(=O)[C@H]23)OCO4)cc(OC)c1O [Etoposide, 4′-demethyl-7-(4,6-O-ethylidene-β-D-glucopyranosyl)epipodophyllotoxin]",Level of IGF-1R phosphorylation in intact cells,[5]; 0.05 μM,102 % OD
same,Level of IGF-1R phosphorylation in intact cells,[5]; 15 μM,105 % OD
"COc1cc(C2c3cc4c(cc3C(OC3OC5COC(c6ccccc6)OC5C(O)C3O)C3COC(=O)C23)OCO4)cc(OC)c1OC [Pf-4,6-O, podophyllotoxin-4,6-O-benzylidene-β-D-glucopyranoside]",Level of IGF-1R phosphorylation in intact cells,[5]; 0.05 μM,100 % OD
same,Level of IGF-1R phosphorylation in intact cells,[5]; 15 μM,102 % OD
same,Effect on IGF-1R,[5]; stated in description,completely disappeared
"CC[C@]1(O)C[C@H]2CN(CCc3c([nH]c4ccccc34)[C@@](C(=O)OC)(c3cc4c(cc3OC)N(C=O)[C@H]3[C@@](O)(C(=O)OC)[C@H](OC(C)=O)[C@]5(CC)C=CCN6CC[C@]43[C@@H]65)C2)C1 [Vincristine, vincristine, reference compound]",IC50,[1]; [11],1.6 nM
same,IC50,[2]; [11],5 nM
same,IC50,"[3]; Homo sapiens, HL-60, HL60/0, 72 h, read-out: IC50 for cell viability, vincristine alone",0.8 nM
same,IC50,"[4]; Homo sapiens, HL-60, 72 h, read-out: IC50 for cell viability, vincristine alone",1.2 nM
β-apopicropodophyllin [Beta-apopicro],IC50,[1]; [8],10 nM
same,IC50,[2]; [8],10 nM
same,IC50,[3]; [9],10 nM
same,IC50,[4]; [10],10 nM
